Data reported in US20070128217A1 (priority 2003, published 2007).

Experiments:
[1] = test system: rabbit serum obtained by immunizing a rabbit with the SARS-CoV strain Frankfurt 1; type: binding; set-up: Binding of a rabbit serum to linear peptides / Binding of a rabbit serum to looped peptides / Rabbit serum linear peptides / Rabbit serum looped peptides / Binding of a rabbit serum to linear peptides of protein N of SARS-CoV Urbani (Rabbit serum linear peptides) / Binding of a rabbit serum to looped/cyclic peptides of protein N of SARS-CoV Urbani (Rabbit serum looped peptides): unit not given here
[2] = test system: antibodies in sera from SARS patients (sera 1a, 1b, 2, 6, 37, 62, London, SARS-yellow, SARS-green); type: binding, human; set-up: Binding of serum 6 to linear peptides of protein X1 of SARS-CoV Urbani / Binding of serum 37 to linear peptides of protein X1 of SARS-CoV Urbani / Binding of serum 6 to looped/cyclic peptide (PEPSCAN-ELISA) / Binding of serum 37 to looped/cyclic peptide (PEPSCAN-ELISA) / Binding of serum 37 to looped/cyclic peptides of protein X1 of SARS-CoV Urbani / Binding of serum 6 to linear peptides of protein X2 / Binding of serum 37 to linear peptides of protein X2 / Binding of serum 37 to looped/cyclic peptides of protein X2 of SARS-CoV Urbani / Binding of serum 6 to linear peptides of protein M of SARS-CoV Urbani / Binding of serum 37 to linear peptides of protein M of SARS-CoV Urbani / Binding of serum 6 to looped/cyclic peptides of protein M of SARS-CoV Urbani / Binding of serum 37 to looped/cyclic peptides of protein M of SARS-CoV Urbani / Binding of serum 6 to linear peptides of protein X3 of SARS-CoV Urbani / Binding of serum 37 to linear peptides of protein X3 of SARS-CoV Urbani / Binding of serum 37 to looped/cyclic peptides of protein X3 of SARS-CoV Urbani / Binding of serum 6 to linear peptides of protein X4 of SARS-CoV Urbani / Binding of serum 37 to linear peptides of protein X4 of SARS-CoV Urbani / Binding of serum 37 to looped/cyclic peptides of protein X4 of SARS-CoV Urbani / Binding of serum 6 to linear peptides of protein X5 of SARS-CoV Urbani / Binding of serum 37 to linear peptides of protein X5 of SARS-CoV Urbani / Binding of serum 37 to looped/cyclic peptides of protein X5 of SARS-CoV Urbani / Binding of serum 6 to linear peptides of protein N of SARS-CoV Urbani / Binding of serum 37 to linear peptides of protein N of SARS-CoV Urbani / Binding of serum 6 to linear peptide (PEPSCAN-ELISA) / Binding of serum 1a to looped/cyclic peptides of protein N of SARS-CoV Urbani / Binding of serum 1b to looped/cyclic peptides of protein N of SARS-CoV Urbani / Binding of serum 2 to looped/cyclic peptides of protein N of SARS-CoV Urbani / Binding of serum 6 to looped/cyclic peptides of protein N of SARS-CoV Urbani / Binding of serum 37 to looped/cyclic peptides of protein N of SARS-CoV Urbani / Binding of serum 62 to looped/cyclic peptides of protein N of SARS-CoV Urbani / Binding of serum London to looped/cyclic peptides of protein N of SARS-CoV Urbani / Binding of serum SARS-green to looped/cyclic peptides of protein N of SARS-CoV Urbani: unit not given here
[3] = test system: control sera (pooled serum of ten healthy LUMC hospital workers; commercial negative donor pooled serum from the Dutch bloodbank); type: binding, human; set-up: Binding of Control serum LUMC to linear peptides / Binding of Control serum Blood-bank to linear peptides / Binding of Control serum LUMC to looped peptides / Binding of Control Serum Blood-Bank to Looped peptides / Binding of Control serum LUMC to linear peptides of the protein M of SARS-CoV Urbani / Binding of Control serum Blood-bank to linear peptides of the protein M of SARS-CoV Urbani / Binding of Control serum LUMC to looped peptides of the protein M of SARS-CoV Urbani / Binding of Control Serum Blood-Bank to Looped peptides of the protein M of SARS-CoV Urbani: unit not given here

Sequence: IPLQASLPFGWLVIG
- Binding of a rabbit serum to linear peptides [1]: 0.1
- Binding of a rabbit serum to looped peptides [1]: 0.5
- Binding of serum 1a to linear peptides of protein X1 of SARS-CoV Urbani [2]: 0.8
- Binding of serum 1a to looped/cyclic peptide (PEPSCAN-ELISA) [2]: 0.6
- Binding of serum 1b to linear peptides of protein X1 of SARS-CoV Urbani [2]: 0.6
- Binding of serum 1b to looped/cyclic peptide (PEPSCAN-ELISA) [2]: 0.4
- Binding of serum 2 to linear peptides of protein X1 of SARS-CoV Urbani [2]: 0.6
- Binding of serum 2 to looped/cyclic peptide (PEPSCAN-ELISA) [2]: 0.4
- Binding of serum 6 to linear peptides of protein X1 of SARS-CoV Urbani [2]: 0.5
- Binding of serum 6 to looped/cyclic peptide (PEPSCAN-ELISA) [2]: 0.3
- Binding of serum 37 to linear peptides of protein X1 of SARS-CoV Urbani [2]: 0.7
- Binding of serum 37 to looped/cyclic peptide (PEPSCAN-ELISA) [2]: 0.5
- Binding of serum 62 to linear peptides of protein X1 of SARS-CoV Urbani [2]: 0.6
- Binding of serum 62 to looped/cyclic peptide (PEPSCAN-ELISA) [2]: 0.6
- Binding of serum London to linear peptides of protein X1 of SARS-CoV Urbani [2]: 0.3
- Binding of serum London to looped/cyclic peptide (PEPSCAN-ELISA) [2]: 0.2
- Binding of serum SARS-green to linear peptides of protein X1 of SARS-CoV Urbani [2]: 0.4
- Binding of serum SARS-green to looped/cyclic peptide (PEPSCAN-ELISA) [2]: 0.3
- Binding of serum SARS-yellow to linear peptides of protein X1 of SARS-CoV Urbani [2]: 0.5
- Binding of serum SARS-yellow to looped/cyclic peptide (PEPSCAN-ELISA) [2]: 0.3
- Binding of Control Serum Blood-Bank to Looped peptides [3]: 0.6
- Binding of Control serum Blood-bank to linear peptides [3]: 0.7
- Binding of Control serum LUMC to linear peptides [3]: 0.8
- Binding of Control serum LUMC to looped peptides [3]: 0.6

Sequence: IPYNSVTDTIVVTEG
- Binding of a rabbit serum to linear peptides [1]: 0.1
- Binding of a rabbit serum to looped peptides [1]: 0.3
- Binding of serum 1a to linear peptides of protein X1 of SARS-CoV Urbani [2]: 0.7
- Binding of serum 1a to looped/cyclic peptides of protein X1 of SARS-CoV Urbani [2]: 0.5
- Binding of serum 1b to linear peptides of protein X1 of SARS-CoV Urbani [2]: 0.5
- Binding of serum 1b to looped/cyclic peptides of protein X1 of SARS-CoV Urbani [2]: 0.4
- Binding of serum 2 to linear peptides of protein X1 of SARS-CoV Urbani [2]: 0.5
- Binding of serum 2 to looped/cyclic peptides of protein X1 of SARS-CoV Urbani [2]: 0.4
- Binding of serum 6 to linear peptides of protein X1 of SARS-CoV Urbani [2]: 0.4
- Binding of serum 6 to looped/cyclic peptides of protein X1 of SARS-CoV Urbani [2]: 0.3
- Binding of serum 37 to linear peptides of protein X1 of SARS-CoV Urbani [2]: 0.6
- Binding of serum 37 to looped/cyclic peptides of protein X1 of SARS-CoV Urbani [2]: 0.5
- Binding of serum 62 to linear peptides of protein X1 of SARS-CoV Urbani [2]: 0.4
- Binding of serum 62 to looped/cyclic peptides of protein X1 of SARS-CoV Urbani [2]: 0.5
- Binding of serum London to linear peptides of protein X1 of SARS-CoV Urbani [2]: 0.2
- Binding of serum London to looped/cyclic peptides of protein X1 of SARS-CoV Urbani [2]: 0.2
- Binding of serum SARS-green to linear peptides of protein X1 of SARS-CoV Urbani [2]: 0.3
- Binding of serum SARS-green to looped/cyclic peptides of protein X1 of SARS-CoV Urbani [2]: 0.3
- Binding of serum SARS-yellow to linear peptides of protein X1 of SARS-CoV Urbani [2]: 0.4
- Binding of serum SARS-yellow to looped/cyclic peptides of protein X1 of SARS-CoV Urbani [2]: 0.2
- Binding of Control Serum Blood-Bank to Looped peptides [3]: 0.6
- Binding of Control serum Blood-bank to linear peptides [3]: 0.4
- Binding of Control serum LUMC to linear peptides [3]: 0.5
- Binding of Control serum LUMC to looped peptides [3]: 0.4

Sequence: IQQWIQFMMSRRRLL
- Binding of a rabbit serum to linear peptides [1]: 0.4
- Binding of a rabbit serum to looped peptides [1]: 1.0
- Binding of serum 1a to linear peptides of protein X2 [2]: 0.6
- Binding of serum 1a to looped/cyclic peptides of protein X2 of SARS-CoV Urbani [2]: 0.4
- Binding of serum 1b to linear peptides of protein X2 [2]: 0.5
- Binding of serum 1b to looped/cyclic peptides of protein X2 of SARS-CoV Urbani [2]: 0.4
- Binding of serum 2 to linear peptides of protein X2 [2]: 0.4
- Binding of serum 2 to looped/cyclic peptides of protein X2 of SARS-CoV Urbani [2]: 0.5
- Binding of serum 6 to linear peptides of protein X2 [2]: 0.6
- Binding of serum 6 to looped/cyclic peptides of protein X2 of SARS-CoV Urbani [2]: 0.4
- Binding of serum 37 to linear peptides of protein X2 [2]: 0.6
- Binding of serum 37 to looped/cyclic peptides of protein X2 of SARS-CoV Urbani [2]: 0.5
- Binding of serum 62 to linear peptides of protein X2 [2]: 0.5
- Binding of serum 62 to looped/cyclic peptides of protein X2 of SARS-CoV Urbani [2]: 0.7
- Binding of serum London to linear peptides of protein X2 [2]: 0.4
- Binding of serum London to looped/cyclic peptides of protein X2 of SARS-CoV Urbani [2]: 0.2
- Binding of serum SARS-green to linear peptides of protein X2 [2]: 0.3
- Binding of serum SARS-green to looped/cyclic peptides of protein X2 of SARS-CoV Urbani [2]: 0.4
- Binding of serum SARS-yellow to linear peptides of protein X2 [2]: 0.8
- Binding of serum SARS-yellow to looped/cyclic peptides of protein X2 of SARS-CoV Urbani [2]: 0.5
- Binding of Control Serum Blood-Bank to Looped peptides [3]: 0.5
- Binding of Control serum Blood-bank to linear peptides [3]: 0.7
- Binding of Control serum LUMC to linear peptides [3]: 0.5
- Binding of Control serum LUMC to looped peptides [3]: 0.6

Sequence: IRQEEVQQELYSPLF
- Rabbit serum linear peptides [1]: 0.4
- Rabbit serum looped peptides [1]: 0.4
- Binding of serum 1a to linear peptides of protein X4 of SARS-CoV Urbani [2]: 0.7
- Binding of serum 1b to linear peptides of protein X4 of SARS-CoV Urbani [2]: 0.6
- Binding of serum 2 to linear peptides of protein X4 of SARS-CoV Urbani [2]: 0.5
- Binding of serum 6 to linear peptides of protein X4 of SARS-CoV Urbani [2]: 0.5
- Binding of serum 37 to linear peptides of protein X4 of SARS-CoV Urbani [2]: 0.8
- Binding of serum 62 to linear peptides of protein X4 of SARS-CoV Urbani [2]: 0.8
- Binding of serum London to linear peptides of protein X4 of SARS-CoV Urbani [2]: 0.7
- Binding of serum SARS-green to linear peptides of protein X4 of SARS-CoV Urbani [2]: 0.8
- Binding of serum SARS-yellow to linear peptides of protein X4 of SARS-CoV Urbani [2]: 0.7
- Recognition of the peptide by sera of SARS-CoV infected individuals, and form (linear, looped/cyclic) in which it is recognized [2]: recognized in looped/cyclic form
- Binding of Control Serum Blood-Bank to Looped peptides [3]: 0.7
- Binding of Control serum Blood-bank to linear peptides [3]: 0.7
- Binding of Control serum LUMC to linear peptides [3]: 0.7
- Binding of Control serum LUMC to looped peptides [3]: 0.9
